Measured values from patent publication US20220339209A1, “ISOLATION, IDENTIFICATION AND APPLICATION OF STREPTOCOCCUS SP. 121” (priority 2021, published 2022).

Experiments:
[1] = test system: Klebsiella pneumoniae; test: Filtering paper agar diffusion bacteriostatic test against Klebsiella pneumoniae; conditions: 50 μL on 0.6 cm filter paper, extract 1 mg/10 μL, positive control 1 mg/mL, MH plate, 37° C., 16-20 h
[2] = test system: Shigella dysenteriae; test: Filtering paper agar diffusion bacteriostatic test against Shigella dysenteriae; type: cell-based; conditions: 50 μL on 0.6 cm filter paper, extract 1 mg/10 μL, positive control 1 mg/mL, MH plate, 37° C., 16-20 h

NC[C@H]1O[C@H](O[C@H]2[C@H](O)[C@@H](O[C@H]3O[C@H](CO)[C@@H](O)[C@H](N)[C@H]3O)[C@H](N)C[C@@H]2N)[C@H](O)[C@@H](O)[C@@H]1O [Kanamycin, kanamycin]
size of bacteriostatic ring, mean ([1]; mean of 3 measurements): 19.7 mm | size of bacteriostatic ring ([1]; the first time): 20 mm | size of bacteriostatic ring ([1]; the second time): 18 mm | size of bacteriostatic ring ([1]; the third time): 21 mm | size of bacteriostatic ring, mean ([2]; mean of 3 measurements): 23.7 mm | size of bacteriostatic ring ([2]; the first time): 24 mm | size of bacteriostatic ring ([2]; the second time): 24 mm | size of bacteriostatic ring ([2]; the third time): 23 mm
